In brackets after ≈: the same amount, converted by molar mass. Several values for one entry are separate records, joined by “and”; a condition that tells them apart may be missing. Equal values may be shown once. Read-outs that look alike come from different tables or passages of the source.
How the values were obtained:
[1] = biological target: T1, 50:50 mixture of recombinant mouse PKCα and mouse PKCβ2; test: Protein Kinase C (PKC) screening assay; type: biochemical; details: Inhibition of Protein Kinase C
T1 construct: The enzymes are expressed in Sf9 insect cells from recombinant baculovirus and partially purified on DEAE-cellulose and Sephacryl 200 gel filtration
Excerpt: The Protein Kinase C (PKC) screening assay utilized in the following experiments is similar to standard PKC assays used by many investigators. Its primary features are that 1) the assay utilizes a 50:50 mixture of recombinant mouse PKCα and mouse PKCβ2; 2) employs histone as phosphate-accepting substrate; and 3) the PKC enzymatic activity is activated with phosphatidylserine, TPA and low concentration of calcium, so that both calcium and TPA are somewhat limiting for the extent of activation. In this manner the assay is sensitive to inhibitors of PKC activation. A more detailed description of the assay is provided in the following paragraphs.
The recombinant PKC formulation is a mixture (equal parts by activity) of mouse PKCα and mouse PKCβ2. The enzymes are expressed in Sf9 insect cells from recombinant baculovirus and partially purified on DEAE-cellulose and Sephacryl 200 gel filtration. Sufficient PKC is added to each reaction to provide approximately 4 pmols phosphate transferred in 30 minute (per total reaction.) The reaction is linear over the time when 4 pmols of phosphate is transferred and the reaction remains linear well beyond this time frame.
The PKC screening assay is performed in 96 well polystyrene U bottom micro titer plates, in a total reaction volume of 50 ul. Solution manipulations are performed during the assay utilize a Rainin, motorized EDP-plus M8 eight-channel micropipettor.
In some cases 50% DMSO:water, water, or methanol is substituted (if essential) for the solvent. At least 25 μl of the highest concentration sample to be assayed is transferred to a well in a 96 well U-bottom polystyrene assay plate. Serial 5-fold or 10-fold dilutions (depending on the dose-range desired) are made using the EDP-plus M8 eight-channel pipettor in dilute mode and mixing by repipetting. Using the 8-channel pipettor, 2 μl of each dilution is transferred to the appropriate wells of the plate(s) to be used for each assay. Duplicate assays are performed for each dose, with each assay, allowing six wells (half the row) for three-dose assays, or 12 wells (the whole row) for six-dose assays. In general, extracts and fractions are assayed at three doses: 400, 40 an 4 ug/ml, while pure compounds are tested at six doses: 400, 80, 16, 3.2, 0.64, 0.128 ([…]).

[2] = tested on: normal human renal cells (RPTEC); test: Selective cytotoxicity microculture assay, normal human renal cells; type: cell-based
[3] = tested on: human renal carcinoma cells (A-498); test: Selective cytotoxicity microculture assay, human renal carcinoma
[4] = tested on: ras-transformed human bronchial epithelial cells (TBE); test: Selective cytotoxicity microculture assay, ras-transformed bronchial epithelial cells; type: cell-based
[5] = Homo sapiens, A498, A-498 human renal carcinoma
[6] = Homo sapiens, Epithelial cell, read-out: GI50

Compound	IC50 [1]	GI50 [2]	GI50 ([3]; A-498 human renal carcinoma)	GI50 [3, 5]	GI50 [4]	GI50 [4, 6]
OCc1ccc(-c2ccc(-c3ccc(CO)[se]3)s2)[se]1 [compound 676632]	50 µg/mL (≈ 124000 nM)	2 ng/mL and 0.3 ng/mL	0.0002 ng/mL (≈ 0.000497 nM)	0.0003 ng/mL (≈ 0.000746 nM)		
OCc1ccc(-c2ccc(-c3ccc[se]3)[se]2)[se]1 [compound 675246]	3 × 10^0 μg/ml			0.003 ng/mL (≈ 0.00716 nM)	2 ng/mL (≈ 4.77 nM)	3 ng/mL (≈ 7.16 nM)
OCc1ccc(-c2ccc(-c3ccc(CO)[se]3)[se]2)[se]1 [compound 675247]	10 µg/mL (≈ 22300 nM)				20000 ng/mL (≈ 44500 nM)	30000 ng/mL (≈ 66800 nM)
OCc1ccc(-c2ccc(-c3ccc[se]3)s2)[se]1 [compound 676631]	2 × 10^0 μg/ml					
OCc1ccc(-c2ccc(-c3ccc(CO)s3)[se]2)s1 [compound 675343]	30 µg/mL (≈ 84400 nM)					
